The target in assay [1] is T1, 5-LO enzyme (Homo sapiens, UniProt P09917).
T1 sequence (P09917 1-674): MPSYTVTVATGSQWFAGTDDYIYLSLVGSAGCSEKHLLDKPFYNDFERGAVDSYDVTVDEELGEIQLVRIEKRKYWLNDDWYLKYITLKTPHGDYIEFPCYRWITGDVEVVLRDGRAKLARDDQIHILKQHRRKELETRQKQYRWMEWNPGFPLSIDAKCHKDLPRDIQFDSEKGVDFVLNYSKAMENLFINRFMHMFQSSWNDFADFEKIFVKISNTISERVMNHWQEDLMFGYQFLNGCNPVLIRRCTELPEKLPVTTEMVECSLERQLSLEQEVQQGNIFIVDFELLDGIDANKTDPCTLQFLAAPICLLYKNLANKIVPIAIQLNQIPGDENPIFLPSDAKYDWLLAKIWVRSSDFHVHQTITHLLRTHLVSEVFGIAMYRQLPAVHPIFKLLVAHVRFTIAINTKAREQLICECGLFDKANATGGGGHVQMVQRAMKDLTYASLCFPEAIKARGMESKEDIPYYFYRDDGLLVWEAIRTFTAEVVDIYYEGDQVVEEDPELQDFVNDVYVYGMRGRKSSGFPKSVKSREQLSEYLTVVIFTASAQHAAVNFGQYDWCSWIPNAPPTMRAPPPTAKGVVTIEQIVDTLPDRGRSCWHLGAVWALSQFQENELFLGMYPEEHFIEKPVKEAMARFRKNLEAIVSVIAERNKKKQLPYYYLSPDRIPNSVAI
Kind of assay: 5-LO enzyme inhibition. Format: biochemical.

Assay [2] concerns the target T2, rabbit reticulocyte 15-LO (Oryctolagus cuniculus, UniProt P12530).
T2 construct: rabbit reticulocyte 15-LO; from tissue; host or cells: rabbit reticulocytes
T2 sequence (P12530 1-663): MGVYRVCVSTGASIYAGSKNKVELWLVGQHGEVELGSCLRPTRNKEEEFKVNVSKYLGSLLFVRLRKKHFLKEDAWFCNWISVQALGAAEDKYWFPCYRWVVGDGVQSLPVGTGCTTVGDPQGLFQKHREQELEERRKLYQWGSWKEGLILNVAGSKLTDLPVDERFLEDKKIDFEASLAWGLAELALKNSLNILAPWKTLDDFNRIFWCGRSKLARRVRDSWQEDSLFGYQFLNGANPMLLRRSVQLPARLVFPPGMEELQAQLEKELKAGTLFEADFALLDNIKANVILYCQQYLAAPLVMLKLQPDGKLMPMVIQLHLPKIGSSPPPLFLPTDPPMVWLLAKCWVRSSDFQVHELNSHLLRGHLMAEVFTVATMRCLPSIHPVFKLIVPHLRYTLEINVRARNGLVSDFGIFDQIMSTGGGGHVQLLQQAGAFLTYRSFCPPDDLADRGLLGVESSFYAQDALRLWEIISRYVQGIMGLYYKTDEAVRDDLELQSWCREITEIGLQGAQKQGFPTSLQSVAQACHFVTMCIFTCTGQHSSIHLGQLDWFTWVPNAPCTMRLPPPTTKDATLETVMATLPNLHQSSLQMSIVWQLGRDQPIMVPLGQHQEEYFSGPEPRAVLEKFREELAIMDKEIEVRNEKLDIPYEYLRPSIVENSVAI
Kind of assay: 15-LO inhibition, rabbit reticulocyte 15-LO with linoleic acid substrate, HPLC method of Auerbach et al. It counts as biochemical. As for the experimental part:
Two in vitro assays were utilized, both utilizing rabbit reticulocyte 15-LO, and linoleic acid as substrate, to enzymatically produce a peroxide oxidation product known as 13(S)-HPODE. N-Benzoyl leucomethylene blue was utilized as a calorimetric reagent for detection and quantification of the peroxide formation. Also, HPLC was utilized to quantify the oxidation following incubation at 4° C. for 10 minutes.

The test system of assay [3] is atherosclerotic lesions in cholesterol-fed New Zealand White rabbits. Kind of assay: Atherosclerosis in cholesterol-fed rabbits, 12-week study (aortic lesion coverage, aortic cholesterol content). The settings on record: 350 mg/kg/day in food, 12 weeks. Format: in vivo, rabbit. The text has this: As further evidence of 15-LO inhibitors being effective to prevent and treat inflammation and atherosclerosis in animals, one representative compound has been extensively evaluated in cholesterol-fed rabbits over a 12-week period.
Specific pathogen-free New Zealand White rabbits (≈2.5 kg) were obtained from Myrtle's Rabbitry (Thompson Station, Tenn.). The animals were fed a standard laboratory diet (Ralston Purina, St. Louis, Mo.) and were allowed to become acclimatized for 7 days before initiation of the study, at which time two groups of rabbits (n=10 each) were begun on a diet enriched with cholesterol (0.25% wt/wt), peanut oil (3% wt/wt), and coconut oil (3% wt/wt), with a small amount of applesauce mixed into the food to enhance palatability. This diet was designed to produce a modest hypercholesterolemic response. The control group received no additional treatment. […] Rabbits were permitted access to 40 g of food at ≈12 hour intervals via automated feeders, and diet intake was monitored every day such that the animals received 175 mg/kg/bid. Water was available ad libitum. Body weights were measured at regular intervals throughout the 12-week study. Blood samples were obtained at the indicated intervals for determination of hematocrit and plasma lipid concentrations.
Rabbits were euthanized by an overdose of sodium pentobarbital (150 mg/kg^-1) and exsanguinated via the abdominal aorta. Aortas were removed from the valve to the ileal bifurcation, opened to expose the intima, and photographed with a Polaroid camera. By use of these photographs, the areas of grossly discernible atherosclerosis were manually integrated on a digitizing pad and calculated with SigmaScan (Jandel Scientific). Aortas were visually subdivided into three areas: arch (aortic valve to first intercostal), thoracic aorta (first intercostal to diaphragm area), and abdominal aorta (diaphragm to ileal bifurcation). In addition to extracting aortas, body tissues were surveyed for indications of adverse reactions.
Weighed segments of each aortic region (arch, thoracic, and abdominal) were extracted. Esterified and unesterified cholesterol content of aortic tissue were determined by gas chromatography using 5-α-cholestane as an internal standard.

[4] abbreviates: Table 1, HPLC method, read-out: 15-LO IC50.
[5] abbreviates: Table 1, read-out: 5-LO (concentration to inhibit 50% of 5-LO activity).
The mark [6] stands for this setting: Table 2, benzimidazoles, read-out: 5-LO IC50.
Where [7] appears, read: Table 2, benzimidazoles, read-out: 15-LO IC50.
Setting [8] is: read-out: 5-LO inhibitory activity IC50.
The mark [9] stands for this setting: Table 4, indoles, read-out: 5-LO IC50.
Where [10] appears, read: Table 4, indoles, read-out: 15-LO IC50.

Where two headings read alike, the source gives them in different places. Where only a bound is given, the exact number is not on record here.

In the case of `Clc1ccc2c(c1)Nc1c(ccc3ccccc13)S2`, the IC50 in assay [1] (Table 5, read-out: 5-LO IC50) was over 30 µM; in assay [2] (Table 5, read-out: 15-LO IC50), 2 µM.

With `COc1ccc2[nH]c3c4ccccc4ncc3c2c1`, the IC50 in assay [2] (setting [4]) is over 25 µM.

`COc1ccc(/C=C/C(=O)c2cccs2)cc1` [drawing 31 (R2=H, R3=4-OCH3, Het=drawing 32)]: the IC50 in assay [1] (Table 3, styrenes, read-out: 5-LO IC50) is over 10 µM; in assay [2] (Table 3, styrenes, read-out: 15-LO IC50), 1.6 µM.

For the compound `COc1ccc2[nH]c3c(c2c1)COc1ccccc1-3`, the IC50 in assay [1] (setting [5]) is over 50 µM; in assay [2] (setting [4]) it was 4 µM.

With `COc1ccc2[nH]c3c4ccccc4[s+]cc3c2c1`, the figures for the IC50 in assay [1] (setting [5]) and in assay [2] (setting [4]) were over 9.6 µM and 0.7 µM, respectively.

For the compound `COc1ccc2c(c1)[nH]c1c3ccccc3[s+]cc21`, the IC50 in assay [2] (setting [4]) is 26 µM.

`c1csc(-c2csc(-c3nc4ccccc4[nH]3)n2)c1` [drawing 26 (R2=H, R3=H, R10=H, R11=drawing 27)]: the values for the IC50 in assay [1] (setting [6]) and in assay [2] (setting [7]) were over 10 µM and 1.5 µM, respectively.

For `c1ccc2c(c1)SCc1c-2[nH]c2ccccc12` [Compound A, 6,11-dihydro[1]benzothiopyrano[4,3-b]-indole], the IC50 in assay [1] (setting [5]) and in assay [1] (setting [8]) was over 100 µM in each case. Further, in assay [3] (abdominal (control about 0.6)), the “cholesterol esters, abdominal region” value was “no detectable cholesterol esters”. Moreover, the “lesion coverage, abdominal region” value in assay [3] (abdominal aorta (control 5%)) is recorded as “about 1%”. Also, in assay [3] (about the same as control), the “unesterified cholesterol, thoracic and abdominal regions” value is recorded as 0.7-0.8 mg/g tissue wet weight. The “lesion coverage of intima, arch area” value in assay [3] (aortic arch (control about 15%)) is given as “no lesion coverage”. The “unesterified cholesterol, arch region” value in assay [3] (arch (control about 1.4)) is given as “about 0.8 mg/g”. Moreover, in assay [3] (arch (control about 2)), the “cholesterol esters, arch region” value is listed as “no detectable cholesterol esters”. Moreover, the “cholesterol esters, thoracic region” value in assay [3] (thoracic (control none)) was “no detectable cholesterol esters”. Further, in assay [3] (thoracic aorta), the “lesions, thoracic region” value is given as “No detectable lesions”.

Turning to `Clc1ccc2[s+]cc3c4ccccc4[nH]c3c2c1` [drawing 19 (R2=H, R3=H, R4=Cl, R5=H, R8=H)], the IC50 in assay [2] (setting [4]) was 12 µM.

As to `Cc1ccc2[s+]cc3c4ccccc4[nH]c3c2c1` [drawing 19 (R2=H, R3=H, R4=CH3, R5=H, R8=H)], the IC50 in assay [2] (setting [4]) was determined as 1.9 µM.

As to `Cc1[s+]c2ccccc2c2[nH]c3ccccc3c12` [drawing 19 (R2=H, R3=H, R4=H, R5=H, R8=CH3)], the IC50 in assay [2] (setting [4]) was over 25 µM.

Turning to `c1ccc2c(c1)ccc1c3ccccc3[nH]c21`, the IC50 is over 10 µM in assay [1] (Table 5, read-out: 5-LO IC50) and 1.5 µM in assay [2].

`Clc1ccc(-c2nc3ccc(Cl)cc3[nH]2)cc1` [2-(4-chlorophenyl)-5-chlorobenzimidazole]: the results for the IC50 in assay [1] (setting [6]), in assay [1] (setting [8]) and in assay [2] (setting [7]) were over 10 µM, over 10 µM and 0.65 µM, respectively. For the same compound, the “15-LO to 5-LO ratio of activities” value in assay [2] (15-LO versus 5-LO) is reported as “greater than 10”.

Consider `c1ccc2c(c1)[nH]c1c3cc4c(cc3[s+]cc21)CCCC4`, for which the IC50 in assay [1] (setting [5]) is over 32 µM; in assay [2] (setting [4]), 0.5 to 2 µM.

Turning to `c1ccc2c(c1)[nH]c1c3ccccc3[s+]cc21` [drawing 19 (R2=H, R3=H, R4=H, R5=H, R8=H)], in assay [2] (setting [4]), the IC50 was 1 to 4 µM.

On to `Clc1ccc2[nH]c(-c3ccccc3)nc2c1`, for which the IC50 was over 10 µM in assay [1] (setting [6]) and 0.7 µM in assay [2] (setting [7]).

For `Cc1ccc2c(c1)[s+]cc1c3ccccc3[nH]c21` [drawing 19 (R2=H, R3=H, R4=H, R5=CH3, R8=H)], the IC50 in assay [2] (setting [4]) was 1 to 4 µM.

Turning to `O=C(Nc1cccc(Cl)c1)Sc1c[nH]c2ccccc12`, the IC50 is over 10 µM in assay [1] (setting [9]) and 4 µM in assay [2] (setting [10]).

For `CCCCCC#CCC#CCC#CCC#CCCCC(=O)O` [CH3 (CH2)3 (CH2 --C≡C--)4 (CH2)3 --COOH], the IC50 was over 10 µM in assay [1] (Table 5, read-out: 5-LO IC50) and 0.75 µM in assay [2] (Table 5, read-out: 15-LO IC50).

On to `COc1ccc2[nH]c3c(c2c1)CCc1ccccc1-3`, for which, in assay [2] (setting [4]), the IC50 is over 25 µM.

On to `COc1ccc2c3c([nH]c2c1)-c1ccccc1SC3`, for which the IC50 was over 50 µM in assay [1] (setting [5]) and 4.5 µM in assay [2] (setting [4]).

Regarding `c1ccc2c(c1)c[s+]c1c3ccccc3[nH]c21` [drawing 20 (R2=H, R3=H, R4=H, R5=H, R8=H)], the values for the IC50 in assay [1] (setting [5]) and in assay [2] (setting [4]) were 22 µM and 3.8 µM, respectively.

Turning to `O=[N+]([O-])c1ccc2[s+]cc3c4ccccc4[nH]c3c2c1` [drawing 19 (R2=H, R3=H, R4=NO2, R5=H, R8=H)], the figures for the IC50 in assay [1] (setting [5]) and in assay [2] (setting [4]) were over 10 µM and 0.48 µM, respectively.

With `O=C(Cc1c[nH]c2ccccc12)Nc1ccccc1`, the IC50 in assay [1] (setting [9]) was over 10 µM; in assay [2] (setting [10]), 1.5 µM.

Turning to `COc1ccc2[nH]c3c(c2c1)CSc1ccccc1-3`, the IC50 in assay [1] (setting [5]) is over 10 µM; in assay [2] (setting [4]) it was 0.6 µM.

Source of the values: patent publication US5972980A, “Method for treating and preventing inflammation and atherosclerosis” (Warner-Lambert Company, priority 1999, dated 1999).
